Patent publication US10005739B2, “Quinazolinone and isoquinolinone derivative” (CHUGAI SEIYAKU KABUSHIKI KAISHA, priority 2013, dated 2018)

Each compound was assayed against DDR1 (Homo sapiens (Human), UniProt Q08345) (assay: Measurement of DDR1 enzyme inhibitory activity (phosphorylation of biotinylated peptide, time-resolved fluorescence)). Settings: human DDR1 enzyme, biotinylated peptide phosphorylation; read-out: DDR1 enzyme inhibition assay IC50.
Chain of DDR1 (Q08345 19-913): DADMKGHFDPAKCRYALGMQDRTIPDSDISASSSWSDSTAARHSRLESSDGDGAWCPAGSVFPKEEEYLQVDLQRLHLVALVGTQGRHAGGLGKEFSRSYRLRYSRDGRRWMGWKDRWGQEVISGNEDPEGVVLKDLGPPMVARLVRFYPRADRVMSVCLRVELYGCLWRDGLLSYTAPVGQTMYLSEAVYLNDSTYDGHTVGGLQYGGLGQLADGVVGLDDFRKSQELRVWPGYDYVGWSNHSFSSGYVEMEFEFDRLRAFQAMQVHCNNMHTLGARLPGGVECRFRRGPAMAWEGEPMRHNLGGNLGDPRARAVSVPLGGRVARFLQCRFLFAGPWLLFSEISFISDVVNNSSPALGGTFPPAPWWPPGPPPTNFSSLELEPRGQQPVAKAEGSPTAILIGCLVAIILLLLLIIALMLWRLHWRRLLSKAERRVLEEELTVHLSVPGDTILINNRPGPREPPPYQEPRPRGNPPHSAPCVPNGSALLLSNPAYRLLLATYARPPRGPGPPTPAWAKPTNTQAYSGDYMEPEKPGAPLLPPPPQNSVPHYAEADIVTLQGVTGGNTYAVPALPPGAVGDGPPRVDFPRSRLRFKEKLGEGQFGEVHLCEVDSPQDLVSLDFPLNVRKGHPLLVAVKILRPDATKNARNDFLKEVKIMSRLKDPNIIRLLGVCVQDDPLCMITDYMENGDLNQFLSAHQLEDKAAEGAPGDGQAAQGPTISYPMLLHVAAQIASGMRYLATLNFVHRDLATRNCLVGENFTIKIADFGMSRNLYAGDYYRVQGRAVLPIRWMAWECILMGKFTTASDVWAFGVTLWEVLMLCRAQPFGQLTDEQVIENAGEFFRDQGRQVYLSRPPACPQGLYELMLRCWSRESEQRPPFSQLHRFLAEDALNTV
Type: biochemical
Description: 1. Measurement of DDR1 Enzyme Inhibitory Activity
The DDR1 enzyme inhibitory activity was determined with human DDR1 enzyme prepared using the baculovirus expression system, based on the inhibitory activity of phosphorylation of a biotinylated peptide ([…]) by the enzyme. The phosphorylated biotinylated peptide was detected using time-resolved fluorescence, with an anti-phosphorylated tyrosine antibody conjugated with europium cryptate and streptavidin conjugated with XL665 which is a derivative of allophycocyanin.
An IC50 of 680 nM was found for `CCS(=O)(=O)c1ccc(C#N)cc1Nn1cnc2cc(CN3CCOCC3)c(OC(F)(F)F)cc2c1=O` [Compound G-8, 4-Ethylsulfonyl-3-[[7-(morpholin-4-ylmethyl)-4-oxo-6-(trifluoromethoxy)quinazolin-3-yl]amino]benzonitrile] in this work. An IC50 of 150 nM was found for `CCS(=O)(=O)c1ccc(Cl)cc1Cn1cnc2c(Br)c(C)c(Br)cc2c1=O` [Compound E-17, 6,8-Dibromo-3-[(5-chloro-2-ethylsulfonylphenyl)methyl]-7-methylquinazolin-4-one] in this work. An IC50 of 120 nM was found for `CCS(=O)(=O)c1ccc(Cl)cc1Cn1cnc2c(Cl)cc(OC(F)(F)F)cc2c1=O` [Compound E-14, 8-Chloro-3-[(5-chloro-2-ethylsulfonylphenyl)methyl]-6-(trifluoromethoxy)quinazolin-4-one] in this work. An IC50 of 880 nM was found for `CCSc1ccc(Cl)cc1Nn1cnc2cc(Br)c(C)cc2c1=O` [Compound A-5, 7-Bromo-3-(5-chloro-2-ethylsulfanylanilino)-6-methylquinazolin-4-one] in this work. An IC50 of 120 nM was found for `CCS(=O)(=O)c1ccc(Cl)cc1Nn1cnc2ccc(C(F)(F)F)cc2c1=O` [Compound A-10, 3-(5-Chloro-2-ethylsulfonylanilino)-6-(trifluoromethyl)quinazolin-4-one] in this work. An IC50 of 250 nM was found for `CCS(=O)(=O)c1ccc(C#N)cc1Nn1cnc2cc(C)c(Br)cc2c1=O` [Compound C-6, 3-[(6-Bromo-7-methyl-4-oxoquinazolin-3-yl)amino]-4-ethylsulfonylbenzonitrile] in this work. An IC50 of 160 nM was found for `CCSc1ccc(Cl)cc1Nn1cnc2ncc(C(F)(F)F)cc2c1=O` [Compound A-23, 3-(5-Chloro-2-ethylsulfanylanilino)-6-(trifluoromethyl)pyrido[2,3-d]pyrimidin-4-one] in this work. An IC50 of 1340 nM was found for `CCS(=O)(=O)c1ccc(N)cc1Cn1ccc2ccc(OC(F)(F)F)cc2c1=O` [Compound F-10, 2-[(5-Amino-2-ethylsulfonylphenyl)methyl]-7-(trifluoromethoxy)isoquinolin-1-one] in this work. An IC50 of 800 nM was found for `CCSc1ccc(Cl)cc1Nn1cnc2cc(C)c(Br)cc2c1=O` [Compound A-7, 6-Bromo-3-(5-chloro-2-ethylsulfanylanilino)-7-methylquinazolin-4-one] in this work. An IC50 of 590 nM was found for `CCSc1ccc(Cl)cc1Cn1cnc2c(Br)cc(C(F)(F)F)cc2c1=O` [Compound E-9, 8-Bromo-3-[(5-chloro-2-ethylsulfanylphenyl)methyl]-6-(trifluoromethyl)quinazolin-4-one] in this work. An IC50 of 200 nM was found for `CCSc1ccc(Cl)cc1Nn1cnc2ccc(CC)cc2c1=O` [Compound A-52, 3-(5-Chloro-2-ethylsulfanylanilino)-6-ethylquinazolin-4-one] in this work. An IC50 of 240 nM was found for `C#Cc1ccc(S(=O)(=O)CC)c(Nn2cnc3c(Br)cc(C(F)(F)F)cc3c2=O)c1` [Compound C-37, 8-Bromo-3-(2-ethylsulfonyl-5-ethynylanilino)-6-(trifluoromethyl)quinazolin-4-one] in this work. An IC50 of 160 nM was found for `CCS(=O)(=O)c1ccc(C#N)cc1Nn1cnc2c(Br)cc(C)cc2c1=O` [Compound C-2, 3-[(8-Bromo-6-methyl-4-oxoquinazolin-3-yl)amino]-4-ethylsulfonylbenzonitrile] in this work. An IC50 of 200 nM was found for `CCS(=O)(=O)c1ccc(Cl)cc1Nn1cnc2ccc(C(C)C)cc2c1=O` [Compound A-63, 3-(5-Chloro-2-ethylsulfonylanilino)-6-propan-2-ylquinazolin-4-one] in this work. An IC50 of 480 nM was found for `CCSc1ccc(Cl)cc1Nn1cnc2ccc(N)cc2c1=O` [Compound A-59, 6-Amino-3-(5-chloro-2-ethylsulfanylanilino)quinazolin-4-one] in this work. An IC50 of 430 nM was found for `CCS(=O)(=O)c1ccc(C#N)cc1Nn1cnc2cc(Br)c(OC(F)(F)F)cc2c1=O` [Compound C-18, 3-[[7-bromo-4-oxo-6-(trifluoromethoxy)quinazolin-3-yl]amino]-4-ethylsulfonylbenzonitrile] in this work. An IC50 of 410 nM was found for `CCSc1ncc(Cl)cc1Nn1cnc2ccc(C(F)(F)F)cc2c1=O` [Compound D-2, 3-[(5-Chloro-2-ethylsulfanylpyridin-3-yl)amino]-6-(trifluoromethyl)quinazolin-4-one] in this work. An IC50 of 480 nM was found for `CCSc1ccc(Cl)cc1Cn1cnc2ccc(OC(F)(F)F)cc2c1=O` [Compound E-3, 3-[(5-Chloro-2-ethylsulfanylphenyl)methyl]-6-(trifluoromethoxy)quinazolin-4-one] in this work. An IC50 of 330 nM was found for `CC(C)Cc1ccc(Cl)cc1Nn1cnc2ccc(OC(F)(F)F)cc2c1=O` [Compound B-19, 3-[5-Chloro-2-(2-methylpropyl)anilino]-6-(trifluoromethoxy)quinazolin-4-one] in this work. An IC50 of 950 nM was found for `CCSc1ccc(Cl)cc1Cn1cnc2cc(C)c(Br)cc2c1=O` [Compound E-5, 6-Bromo-3-[(5-chloro-2-ethylsulfanylphenyl)methyl]-7-methylquinazolin-4-one] in this work. An IC50 of 200 nM was found for `CCS(=O)(=O)c1ccc(Cl)cc1Cn1cnc2cc(C)c(I)cc2c1=O` [Compound E-8, 3-[(5-Chloro-2-ethylsulfonylphenyl)methyl]-6-iodo-7-methylquinazolin-4-one] in this work. An IC50 of 290 nM was found for `CCSc1ccc(Cl)cc1Nn1cnc2ccc(OC(F)(F)F)cc2c1=O` [Compound A-44, 3-(5-Chloro-2-ethylsulfanylanilino)-6-(trifluoromethoxy)quinazolin-4-one] in this work. An IC50 of 1750 nM was found for `CCS(=O)(=O)c1ccc(Cl)cc1Nn1cnc2cc(OC)c(OC)cc2c1=O` [Compound A-39, 3-(5-Chloro-2-ethylsulfonylanilino)-6-dimethoxyquinazolin-4-one] in this work. An IC50 of 280 nM was found for `CCSc1c(Cl)cc(Cl)cc1Nn1cnc2ccc(C(F)(F)F)cc2c1=O` [Compound C-38, 3-(3,5-Dichloro-2-ethylsulfanylanilino)-6-(trifluoromethyl)quinazolin-4-one] in this work. An IC50 of 180 nM was found for `CCc1ccc2ncn(Nc3cc(Cl)ccc3S(=O)(=O)CC)c(=O)c2c1` [Compound A-53, 3-(5-Chloro-2-ethylsulfonylanilino)-6-ethylquinazolin-4-one] in this work. An IC50 of 280 nM was found for `C#Cc1ccc(SCC)c(Nn2cnc3c(Br)cc(C(F)(F)F)cc3c2=O)c1` [Compound C-36, 8-Bromo-3-(2-ethylsulfanyl-5-ethynylanilino)-6-(trifluoromethyl)quinazolin-4-one] in this work. An IC50 of 110 nM was found for `CCS(=O)(=O)c1cc(Cl)c(Cl)cc1Nn1cnc2ccc(C(F)(F)F)cc2c1=O` [Compound C-41, 3-(4,5-Dichloro-2-ethylsulfonylanilino)-6-(trifluoromethyl)quinazolin-4-one] in this work. An IC50 of 550 nM was found for `CCS(=O)(=O)c1ccc(Cl)cc1Nn1cnc2cc(C)c(Br)cc2c1=O` [Compound A-8, 6-Bromo-3-(5-chloro-2-ethylsulfonylanilino)-7-methylquinazolin-4-one] in this work. An IC50 of 810 nM was found for `CCS(=O)(=O)c1ccc([N+](=O)[O-])cc1Cn1ccc2ccc(OC(F)(F)F)cc2c1=O` [Compound F-9, 2-[(2-Ethylsulfonyl-5-nitrophenyl)methyl]-7-(trifluoromethoxy)isoquinolin-1-one] in this work. An IC50 of 510 nM was found for `CCSc1ccc(Cl)cc1Nn1cnc2cnc(F)cc2c1=O` [Compound A-19, 3-(5-Chloro-2-ethylsulfanylanilino)-6-fluoropyrido[3,4-d]pyrimidin-4-one] in this work. An IC50 of 1100 nM was found for `CCS(=O)(=O)c1ccc(Cl)cc1Cn1cnc2cc(C)c(Br)cc2c1=O` [Compound E-6, 6-Bromo-3-[(5-chloro-2-ethylsulfonylphenyl)methyl]--7-methylquinazolin-4-one] in this work. An IC50 of 3110 nM was found for `CC#Cc1ccc2ncn(Nc3cc(Cl)ccc3S(=O)(=O)CC)c(=O)c2c1` [Compound A-65, 3-(5-Chloro-2-ethylsulfonylanilino)-6-prop-1-ynylquinazolin-4-one] in this work. An IC50 of 170 nM was found for `CCSc1ccc(C(F)(F)F)cc1Nn1cnc2c(Br)cc(C(F)(F)F)cc2c1=O` [Compound C-34, 8-Bromo-3-[2-ethylsulfanyl-5-(trifluoromethyl)anilino]-6-(trifluoromethyl)quinazolin-4-one] in this work. An IC50 of 40 nM was found for `CCS(=O)(=O)c1ccc(Cl)cc1Nn1cnc2c(Br)cc(C)cc2c1=O` [Compound A-2, 8-Bromo-3-(5-chloro-2-ethylsulfonylanilino)-6-methylquinazolin-4-one] in this work. An IC50 of 170 nM was found for `CCSc1ccc(Cl)cc1Nn1cnc2c(Br)cc(C)cc2c1=O` [Compound A-1, 8-Bromo-3-(5-chloro-2-ethylsulfanylanilino)-6-methylquinazolin-4-one] in this work. An IC50 of 150 nM was found for `CCS(=O)(=O)c1ccc(F)cc1Nn1cnc2c(Br)cc(OC(F)(F)F)cc2c1=O` [Compound C-20, 8-Bromo-3-(2-ethylsulfonyl-5-fluoroanilino)-6-(trifluoromethoxy)quinazolin-4-one] in this work. An IC50 of 110 nM was found for `CCCS(=O)(=O)c1ccc(Cl)cc1Nn1cnc2c(Br)cc(C)cc2c1=O` [Compound B-4, 8-Bromo-3-(5-chloro-2-propylsulfonylanilino)-6-methylquinazolin-4-one] in this work. An IC50 of 1470 nM was found for `N#Cc1ccc(S(=O)(=O)c2ccccc2)c(Nn2cnc3ccc(C(F)(F)F)cc3c2=O)c1` [Compound B-16, 4-(Benzenesulfonyl)-3-[[4-oxo-6-(trifluoromethyl)quinazolin-3-yl]amino]benzonitrile] in this work. An IC50 of 380 nM was found for `CCS(=O)(=O)c1ccc(Cl)cc1Nn1cnc2cc(F)c(F)cc2c1=O` [Compound A-31, 3-(5-Chloro-2-ethylsulfonylanilino)-6,7-difluoroquinazolin-4-one] in this work.

Same assay, conditions: read-out: DDR1 enzyme inhibition assay IC50
An IC50 of 170 nM was found for `CCS(=O)(=O)c1ccc(Cl)cc1Cn1cnc2cc(CN3CC[C@@H](N)C3)c(Br)cc2c1=O` [Compound J-7, 7-[[(3R)-3-aminopyrrolidin-1-yl]methyl]-6-bromo-3-[(5-chloro-2-ethylsulfonylphenyl)methyl]quinazolin-4-one] in this work. An IC50 of 120 nM was found for `CCS(=O)(=O)c1ccc(Cl)cc1Cn1cnc2cc(CN3CCC(N4CCCCC4)C3)c(Br)cc2c1=O` (centres unmarked) [Compound J-9, 6-Bromo-3-[(5-chloro-2-ethylsulfonylphenyl)methyl]-7-[(3-piperidin-1-ylpyrrolidin-1-yl)methyl]quinazolin-4-one] in this work.
